The term IC50 denotes the concentration at which inhibition is half-maximal.

The target in experiment [1] is T1, HCV NS3/4A protease complex, H77 strain (Hepatitis C virus genotype 1a, UniProt P27958, C1454S/C1711G).
T1 construct: DNA encoding the recombinant HCV NS3/4A protease complex (amino acids 1027 to 1711) for these strains; inferred from Ni-NTA purification and the pET21b vector; made in house; host or cells: Escherichia coli BL21 (DE3)
The experiment is described as follows: FRET peptide assay to monitor HCV NS3/4A proteolytic activity (H77 strain). Type of experiment: biochemical, HCV genotype 1a. The conditions noted are these: read-out: IC50, H177 strain. The source says: (§1) HCV NS3 protease complexes, derived from the BMS strain, H77 strain or J4L6S strain, were generated, as described below. These purified recombinant proteins were generated for use in a homogeneous assay (see below) to provide an indication of how effective compounds of the present disclosure would be in inhibiting HCV NS3 proteolytic activity.
(§2) Serum from an HCV-infected patient was obtained from Dr. T. Wright, San Francisco Hospital. An engineered full-length cDNA (compliment deoxyribonucleic acid) template of the HCV genome (BMS strain) was constructed from DNA fragments obtained by reverse transcription-PCR (RT-PCR) of serum RNA (ribonucleic acid) and using primers selected on the basis of homology between other genotype 1a strains. From the determination of the entire genome sequence, a genotype 1a was assigned to the HCV isolate according to the classification of Simmonds et al. (See P Simmonds, K A Rose, S Graham, S W Chan, F McOmish, B C Dow, E A Follett, P L Yap and H Marsden, J. Clin. Microbiol., 31(6), 1493-1503 (1993)). […]

Experiment [2] concerns the target T2, HCV NS3/4A protease complex, J4L6S strain (Hepatitis C virus genotype 1b, UniProt O92972, C1454S/C1711G).
T2 construct: DNA encoding the recombinant HCV NS3/4A protease complex (amino acids 1027 to 1711) for these strains; inferred from Ni-NTA purification and the pET21b vector; made in house; host or cells: Escherichia coli BL21 (DE3)
The experiment is described as follows: FRET peptide assay to monitor HCV NS3/4A proteolytic activity (J4L6S strain). Type of experiment: biochemical, HCV genotype 1b. Particulars: published J4L6S strain.
Description: as §1, §2

The structures appear in SMILES notation.

T1 sequence (P27958 1027-1711 C1454S/C1711G, one chain of several): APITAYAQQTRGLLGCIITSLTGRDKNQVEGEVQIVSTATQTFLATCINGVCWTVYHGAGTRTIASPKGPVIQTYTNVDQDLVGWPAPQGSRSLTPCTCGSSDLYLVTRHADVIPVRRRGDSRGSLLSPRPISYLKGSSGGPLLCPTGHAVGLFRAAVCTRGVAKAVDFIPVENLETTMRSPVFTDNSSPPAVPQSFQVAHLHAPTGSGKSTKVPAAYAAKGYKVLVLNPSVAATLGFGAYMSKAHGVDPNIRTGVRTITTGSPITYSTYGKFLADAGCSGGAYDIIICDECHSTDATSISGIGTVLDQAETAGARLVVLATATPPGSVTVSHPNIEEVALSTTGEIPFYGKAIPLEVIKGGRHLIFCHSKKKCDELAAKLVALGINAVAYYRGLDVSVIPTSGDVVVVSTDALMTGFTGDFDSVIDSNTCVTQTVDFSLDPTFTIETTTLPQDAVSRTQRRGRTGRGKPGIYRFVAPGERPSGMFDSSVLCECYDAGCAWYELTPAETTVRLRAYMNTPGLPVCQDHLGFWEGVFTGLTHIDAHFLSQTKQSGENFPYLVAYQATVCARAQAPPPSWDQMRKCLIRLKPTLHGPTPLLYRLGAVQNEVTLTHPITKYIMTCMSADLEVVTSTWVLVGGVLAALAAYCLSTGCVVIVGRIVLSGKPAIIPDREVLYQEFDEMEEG
T2 sequence (O92972 1027-1711 C1454S/C1711G, one chain of several): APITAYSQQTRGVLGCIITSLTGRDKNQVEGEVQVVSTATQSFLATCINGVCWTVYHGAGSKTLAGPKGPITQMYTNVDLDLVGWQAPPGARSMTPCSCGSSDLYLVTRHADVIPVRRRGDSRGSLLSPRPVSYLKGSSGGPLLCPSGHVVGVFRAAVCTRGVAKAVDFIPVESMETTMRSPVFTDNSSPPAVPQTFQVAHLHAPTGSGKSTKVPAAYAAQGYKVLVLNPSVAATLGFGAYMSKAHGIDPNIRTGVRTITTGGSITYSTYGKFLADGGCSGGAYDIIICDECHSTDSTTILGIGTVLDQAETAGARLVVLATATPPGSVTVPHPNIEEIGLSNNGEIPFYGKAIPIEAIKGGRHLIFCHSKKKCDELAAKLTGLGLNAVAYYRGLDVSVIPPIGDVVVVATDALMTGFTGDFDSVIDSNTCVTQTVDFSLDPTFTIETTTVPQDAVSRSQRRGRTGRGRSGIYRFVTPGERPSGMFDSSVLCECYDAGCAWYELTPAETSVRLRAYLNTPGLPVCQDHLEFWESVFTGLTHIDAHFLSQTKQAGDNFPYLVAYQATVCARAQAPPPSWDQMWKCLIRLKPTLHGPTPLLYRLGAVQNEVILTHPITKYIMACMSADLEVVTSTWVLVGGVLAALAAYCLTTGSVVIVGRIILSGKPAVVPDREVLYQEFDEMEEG

On to `C=C[C@@H]1C[C@]1(NC(=O)[C@@H]1C[C@@H](Oc2ncc(OC)c3ccc(Cl)cc23)CN1C(=O)[C@@H](Nc1nc(-c2cccc(OC(F)(F)F)c2)cs1)C(C)(C)C)C(=O)NS(=O)(=O)C1CC1` [Example 68], for which the IC50 in experiment [1] is 1.9 nM; in experiment [2] it was 0.9 nM.

For the origin of these results see patent US8163921B2, “Hepatitis C virus inhibitors” (Bristol-Myers Squibb Company, priority 2008, dated 2012).
